This series can be described thus: Particle sizing with the Malvern laser diffraction particle sizer. The series is classed as physicochemical. To be noted: for Malvern size data D10 / Malvern size data D50 / Malvern size data D90: crystalline fluticasone propionate particles, average of 2 results except values marked **. As to the method: The drug substance (fluticasone propionate, FP) (1 wt) was dissolved in acetone (15-20 vols, according to experiment) by heating to 56° C. and then allowed to cool to between 25 and 35° C. A first peristaltic pump was connected to the said FP/acetone solution and a second peristaltic pump was connected to a water reservoir wherein the water was in the temperature range of about 3-30° C. Prior to starting the pumps the mixing chamber was filled with a solution of acetone and water (the ratio of each being the same as the relative pumping rates from the two reservoirs). By doing this, the relative concentrations of the water to acetone remained constant throughout the crystallisation. The temperature of the mixing chamber was maintained in the range about −10 to +30° C. by passing tempered heat transfer fluid through the vessel jacket. The FP/acetone solution inlet and water inlet were arranged coaxially or in parallel (as shown in FIGS. 1a/1b/2a/2b) and the tip of the ultrasound probe was positioned so that it is just above the inlets. Stirring with the aid of a non-grinding magnetic stirrer bar or overhead stirrer was initiated as is the ultrasound at intensity 2-4 W/cm^2 (with respect to the tip face area of the probe). A comparison experiment with the ultrasound probe in place but zero power was performed. Re-crystallisations were carried out from various mixtures of acetone and water (by altering the flow rates of each) as dictated by the parameters set out in the experimental design. Finally the pumps were started simultaneously. A suspension of the crystals in the re-crystallisation mixture was allowed to exit via the overflow directly on to a filter bed. The slurry is isolated and washed with water and dried in vacuo between about 20 to 50° C.
Comparison experiments were performed using the apparatus with diametrically opposite input feeds described in WO 00/38811 in which save for the input feed geometry and the specific parameters given in the table below, and the vessel dimensions given below, other parameters Were similar to those used for the experiments using the present invention.
Samples were sized using the Malvern laser diffraction particle sizer and the results analysed using multi-dimensional model fitting software (such as Design Expert 5).

SMILES strings stand for the structures. Marks after values point to notes of the source that are not given here.

Consider `CCC(=O)O[C@]1(C(=O)SCF)[C@H](C)C[C@H]2[C@@H]3C[C@H](F)C4=CC(=O)C=C[C@]4(C)[C@@]3(F)[C@@H](O)C[C@@]21C` [Run 7, fluticasone propionate], for which, under “listed as 7”, the “Malvern size data D10” value is recorded as 1.15 micron, the “Malvern size data D50” value came out at 4.19 micron and the “Malvern size data D90” value is on record as 10.00 micron.

`CCC(=O)O[C@]1(C(=O)SCF)[C@H](C)C[C@H]2[C@@H]3C[C@H](F)C4=CC(=O)C=C[C@]4(C)[C@@]3(F)[C@@H](O)C[C@@]21C` [Run 3, fluticasone propionate]: under “listed as 3”, the “Malvern size data D10” value was 0.47 micron, the “Malvern size data D50” value was determined as 1.78 micron and the “Malvern size data D90” value was 4.39 micron.

Take `CCC(=O)O[C@]1(C(=O)SCF)[C@H](C)C[C@H]2[C@@H]3C[C@H](F)C4=CC(=O)C=C[C@]4(C)[C@@]3(F)[C@@H](O)C[C@@]21C` [Run 1, fluticasone propionate]: under “listed as 1”, the “Malvern size data D10” value came out at 0.60 micron, the “Malvern size data D50” value is given as 2.25 micron and the “Malvern size data D90” value worked out at 6.29 micron.

Consider `CCC(=O)O[C@]1(C(=O)SCF)[C@H](C)C[C@H]2[C@@H]3C[C@H](F)C4=CC(=O)C=C[C@]4(C)[C@@]3(F)[C@@H](O)C[C@@]21C` [Run 6, fluticasone propionate], for which, for the setting “listed as 6”, the “Malvern size data D10” value was 0.53 micron, the “Malvern size data D50” value amounted to 2.06 micron and the “Malvern size data D90” value was 4.93 micron.

Take `CCC(=O)O[C@]1(C(=O)SCF)[C@H](C)C[C@H]2[C@@H]3C[C@H](F)C4=CC(=O)C=C[C@]4(C)[C@@]3(F)[C@@H](O)C[C@@]21C` [Run 4, fluticasone propionate]: under “listed as 4”, the “Malvern size data D10” value is 0.43** micron, the “Malvern size data D50” value was 1.51** micron and the “Malvern size data D90” value is listed as 3.75** micron. Also, the “particle size distribution, comparison in words” value (versus micronised material or prior art configurations C and D) is recorded as “very good match”.

As for `CCC(=O)O[C@]1(C(=O)SCF)[C@H](C)C[C@H]2[C@@H]3C[C@H](F)C4=CC(=O)C=C[C@]4(C)[C@@]3(F)[C@@H](O)C[C@@]21C` [Run 2, fluticasone propionate], where the note is “listed as 2”, the “Malvern size data D10” value was determined as 0.52 micron, the “Malvern size data D50” value amounted to 2.08 micron and the “Malvern size data D90” value turned out to be 5.10 micron.

Turning to `CCC(=O)O[C@]1(C(=O)SCF)[C@H](C)C[C@H]2[C@@H]3C[C@H](F)C4=CC(=O)C=C[C@]4(C)[C@@]3(F)[C@@H](O)C[C@@]21C` [Run 5, fluticasone propionate], where the note is “listed as 5”, the “Malvern size data D10” value is recorded as 0.86 micron, the “Malvern size data D50” value turned out to be 2.98 micron and the “Malvern size data D90” value turned out to be 6.92 micron.

Take `CCC(=O)O[C@]1(C(=O)SCF)[C@H](C)C[C@H]2[C@@H]3C[C@H](F)C4=CC(=O)C=C[C@]4(C)[C@@]3(F)[C@@H](O)C[C@@]21C` [standard micronised FP, fluticasone propionate]: the “Malvern size data D10” value was 0.60 micron, the “Malvern size data D50” value is reported as 1.62 micron and the “Malvern size data D90” value was 3.20 micron.

Regarding `CCC(=O)O[C@]1(C(=O)SCF)[C@H](C)C[C@H]2[C@@H]3C[C@H](F)C4=CC(=O)C=C[C@]4(C)[C@@]3(F)[C@@H](O)C[C@@]21C` [Run 8, fluticasone propionate], where the note is “listed as 8”, the “Malvern size data D10” value is 1.88 micron, the “Malvern size data D50” value stood at 5.13 micron and the “Malvern size data D90” value came out at 11.86 micron.
